Results from PubChem BioAssay (NCI).
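Tested at 5 concentrations; 48 h exposure; 96-well plates; endpoints linearly interpolated, else capped at highest concentration. GI50: concentration for 50% inhibition of growth. TGI: total growth inhibition.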

Tests used:
Assay in all cases: NCI-60 cell line screen, 48 h
NCI-H460 lung = tested on: NCI-H460 lung
SK-MEL-28 melanoma = tested on: SK-MEL-28 melanoma
T-47D breast = tested on: T-47D breast
MDA-MB-231 breast = tested on: MDA-MB-231 breast
KM12 colon = tested on: KM12 colon
RPMI-8226 leukemia = tested on: RPMI-8226 leukemia
RXF 393 renal = tested on: RXF 393 renal
SR leukemia = tested on: SR leukemia
BT-549 breast = tested on: BT-549 breast
SK-MEL-2 melanoma = tested on: SK-MEL-2 melanoma
DU-145 prostate = tested on: DU-145 prostate
COLO 205 colon = tested on: COLO 205 colon
TK-10 renal = tested on: TK-10 renal
SNB-75 CNS = tested on: SNB-75 CNS
MOLT-4 leukemia = tested on: MOLT-4 leukemia
SW-620 colon = tested on: SW-620 colon
OVCAR-3 ovarian = tested on: OVCAR-3 ovarian
UO-31 renal = tested on: UO-31 renal
K-562 leukemia = tested on: K-562 leukemia
MCF7 breast = tested on: MCF7 breast
OVCAR-8 ovarian = tested on: OVCAR-8 ovarian
HCT-116 colon = tested on: HCT-116 colon
CCRF-CEM leukemia = tested on: CCRF-CEM leukemia
HOP-92 NSCLC = tested on: HOP-92 NSCLC
UACC-257 melanoma = tested on: UACC-257 melanoma
U251 CNS = tested on: U251 CNS
SNB-19 CNS = tested on: SNB-19 CNS
SK-OV-3 ovarian = tested on: SK-OV-3 ovarian
MDA-MB-435 = tested on: MDA-MB-435
M14 melanoma = tested on: M14 melanoma
HS 578T breast = tested on: HS 578T breast
A549 NSCLC = tested on: A549 NSCLC
SK-MEL-5 melanoma = tested on: SK-MEL-5 melanoma
SN12C renal = tested on: SN12C renal
CAKI-1 renal = tested on: CAKI-1 renal
NCI-H23 lung = tested on: NCI-H23 lung
HL-60(TB) leukemia = tested on: HL-60(TB) leukemia
A498 renal = tested on: A498 renal
HT29 colon = tested on: HT29 colon
SF-268 CNS = tested on: SF-268 CNS
ACHN renal = tested on: ACHN renal
LOX IMVI melanoma = tested on: LOX IMVI melanoma
NCI/ADR-RES ovarian = tested on: NCI/ADR-RES ovarian
PC-3 prostate = tested on: PC-3 prostate
SF-539 CNS = tested on: SF-539 CNS
HOP-62 NSCLC = tested on: HOP-62 NSCLC
EKVX NSCLC = tested on: EKVX NSCLC
HCC-2998 colon = tested on: HCC-2998 colon
786-0 renal = tested on: 786-0 renal
OVCAR-4 ovarian = tested on: OVCAR-4 ovarian
HCT-15 colon = tested on: HCT-15 colon
IGROV1 ovarian = tested on: IGROV1 ovarian
MALME-3M melanoma = tested on: MALME-3M melanoma
NCI-H226 lung = tested on: NCI-H226 lung
SF-295 CNS = tested on: SF-295 CNS
MDA-MB-468 breast = tested on: MDA-MB-468 breast
UACC-62 melanoma = tested on: UACC-62 melanoma
OVCAR-5 ovarian = tested on: OVCAR-5 ovarian
NCI-H522 lung = tested on: NCI-H522 lung

## FC(F)(F)c1cc2c(Cl)ncnc2n1CCN1CCOCC1
NCI-H460 lung
  GI50: 23.2 µM
  TGI: > 100 µM
SK-MEL-28 melanoma
  GI50: 13.6 µM
  TGI: 32.9 µM
T-47D breast
  GI50: 38.8 µM
  TGI: > 100 µM
MDA-MB-231 breast
  GI50: 4.36 µM
  TGI: 18.3 µM
KM12 colon
  GI50: 35.5 µM
  TGI: > 100 µM
RPMI-8226 leukemia
  GI50: 31.9 µM
  TGI: > 100 µM
RXF 393 renal
  GI50: 14.9 µM
  TGI: 40.6 µM
SR leukemia
  GI50: 2.85 µM
  TGI: 12.6 µM
BT-549 breast
  GI50: 13.6 µM
  TGI: 28.2 µM
SK-MEL-2 melanoma
  GI50: 17.4 µM
  TGI: 33.4 µM
DU-145 prostate
  GI50: 28.9 µM
  TGI: > 100 µM
COLO 205 colon
  GI50: 26.4 µM
  TGI: > 100 µM
TK-10 renal
  GI50: > 100 µM
  TGI: > 100 µM
SNB-75 CNS
  GI50: 10.1 µM
  TGI: 22.4 µM
MOLT-4 leukemia
  GI50: 5.71 µM
  TGI: 29 µM
SW-620 colon
  GI50: 10.5 µM
  TGI: 56.1 µM
OVCAR-3 ovarian
  GI50: 19.4 µM
  TGI: 43.7 µM
UO-31 renal
  GI50: 2.53 µM
  TGI: 8.99 µM
K-562 leukemia
  GI50: 3.05 µM
  TGI: 18.7 µM
MCF7 breast
  GI50: 25 µM
  TGI: > 100 µM
OVCAR-8 ovarian
  GI50: 8.45 µM
  TGI: 29.4 µM
HCT-116 colon
  GI50: 4.63 µM
  TGI: > 100 µM
CCRF-CEM leukemia
  GI50: 16.6 µM
  TGI: > 100 µM
HOP-92 NSCLC
  GI50: 19 µM
  TGI: 59.8 µM
UACC-257 melanoma
  GI50: 10.5 µM
  TGI: 30.2 µM
U251 CNS
  GI50: 14.8 µM
  TGI: 38.8 µM
SNB-19 CNS
  GI50: 15.3 µM
  TGI: 32.9 µM
SK-OV-3 ovarian
  GI50: > 100 µM
  TGI: > 100 µM
MDA-MB-435
  GI50: 13.2 µM
  TGI: 29.3 µM
M14 melanoma
  GI50: 11.6 µM
  TGI: 36 µM
HS 578T breast
  GI50: 16.5 µM
  TGI: 59 µM
A549 NSCLC
  GI50: > 100 µM
  TGI: > 100 µM
SK-MEL-5 melanoma
  GI50: 13 µM
  TGI: 29.7 µM
SN12C renal
  GI50: 19.7 µM
  TGI: > 100 µM
CAKI-1 renal
  GI50: 27.6 µM
  TGI: > 100 µM
NCI-H23 lung
  GI50: 17.9 µM
  TGI: 74.4 µM
HL-60(TB) leukemia
  GI50: 2.09 µM
  TGI: 5.97 µM
A498 renal
  GI50: > 100 µM
  TGI: > 100 µM
HT29 colon
  GI50: 27.3 µM
  TGI: > 100 µM
SF-268 CNS
  GI50: 14.8 µM
  TGI: 33.8 µM
ACHN renal
  GI50: 7.65 µM
  TGI: > 100 µM
LOX IMVI melanoma
  GI50: 1.75 µM
  TGI: 3.4 µM
NCI/ADR-RES ovarian
  GI50: 30.5 µM
  TGI: > 100 µM
PC-3 prostate
  GI50: 11.3 µM
  TGI: 36.6 µM
SF-539 CNS
  GI50: 18.1 µM
  TGI: 42.2 µM
HOP-62 NSCLC
  GI50: 38.9 µM
  TGI: > 100 µM
EKVX NSCLC
  GI50: 17 µM
  TGI: 94.6 µM
HCC-2998 colon
  GI50: 2.23 µM
  TGI: 5.11 µM
786-0 renal
  GI50: 37 µM
  TGI: > 100 µM
OVCAR-4 ovarian
  GI50: 33 µM
  TGI: > 100 µM
HCT-15 colon
  GI50: 3.3 µM
  TGI: 17.7 µM
IGROV1 ovarian
  GI50: 2.54 µM
  TGI: 7.67 µM
MALME-3M melanoma
  GI50: 22.1 µM
  TGI: 67.3 µM
NCI-H226 lung
  GI50: 99 µM
  TGI: > 100 µM
SF-295 CNS
  GI50: 24.7 µM
  TGI: > 100 µM
MDA-MB-468 breast
  GI50: 2.73 µM
  TGI: 10.4 µM
UACC-62 melanoma
  GI50: 10.8 µM
  TGI: 32.5 µM
OVCAR-5 ovarian
  GI50: > 100 µM
  TGI: > 100 µM

## CCC[Se]C(=O)c1ccc(C(=O)[Se]CCC)s1
NCI-H460 lung
  GI50: < 0.01 µM
  TGI: 0.0104 µM
SK-MEL-28 melanoma
  GI50: < 0.01 µM
  TGI: 0.0294 µM
T-47D breast
  GI50: 1.03 µM
  TGI: 10.7 µM
MDA-MB-231 breast
  GI50: < 0.01 µM
  TGI: < 0.02 µM
KM12 colon
  GI50: 0.0276 µM
  TGI: 1.3 µM
RPMI-8226 leukemia
  GI50: 0.3 µM
  TGI: 2 µM
RXF 393 renal
  GI50: < 0.01 µM
  TGI: 0.0644 µM
SR leukemia
  GI50: 0.0386 µM
  TGI: 10.3 µM
SK-MEL-2 melanoma
  GI50: 0.0408 µM
  TGI: 1.14 µM
DU-145 prostate
  GI50: 0.0955 µM
  TGI: 1.3 µM
COLO 205 colon
  GI50: 0.639 µM
  TGI: 2.1 µM
TK-10 renal
  GI50: 0.121 µM
  TGI: 1.32 µM
SNB-75 CNS
  GI50: < 0.0336 µM
  TGI: 3.07 µM
MOLT-4 leukemia
  GI50: < 0.01 µM
  TGI: 5.1 µM
SW-620 colon
  GI50: 0.0573 µM
  TGI: 0.32 µM
OVCAR-3 ovarian
  GI50: 0.103 µM
  TGI: 0.37 µM
UO-31 renal
  GI50: < 0.02 µM
  TGI: 0.341 µM
K-562 leukemia
  GI50: 0.0414 µM
  TGI: 21.4 µM
MCF7 breast
  GI50: < 0.01 µM
  TGI: 0.17 µM
OVCAR-8 ovarian
  GI50: < 0.01 µM
  TGI: 0.0457 µM
CCRF-CEM leukemia
  GI50: 1.66 µM
  TGI: 16.1 µM
HOP-92 NSCLC
  GI50: < 0.0189 µM
UACC-257 melanoma
  GI50: 0.0587 µM
  TGI: 1.16 µM
U251 CNS
  GI50: < 0.0106 µM
  TGI: 0.139 µM
SNB-19 CNS
  GI50: < 0.01 µM
  TGI: 0.131 µM
SK-OV-3 ovarian
  GI50: 0.0395 µM
  TGI: 0.837 µM
MDA-MB-435
  GI50: < 0.01 µM
  TGI: 0.0199 µM
M14 melanoma
  GI50: < 0.01 µM
  TGI: < 0.0211 µM
HS 578T breast
  GI50: < 0.01 µM
  TGI: 0.411 µM
A549 NSCLC
  GI50: < 0.01 µM
  TGI: 0.085 µM
SK-MEL-5 melanoma
  GI50: < 0.0491 µM
  TGI: 0.159 µM
SN12C renal
  GI50: < 0.01 µM
CAKI-1 renal
  GI50: < 0.0112 µM
  TGI: 0.175 µM
NCI-H23 lung
  GI50: 0.0197 µM
  TGI: 0.114 µM
HL-60(TB) leukemia
  GI50: < 0.01 µM
  TGI: 0.662 µM
A498 renal
  GI50: 0.0635 µM
  TGI: 0.917 µM
HT29 colon
  GI50: < 0.01 µM
  TGI: 0.112 µM
SF-268 CNS
  GI50: < 0.011 µM
  TGI: 0.0675 µM
ACHN renal
  GI50: 0.11 µM
  TGI: 1.22 µM
LOX IMVI melanoma
  GI50: < 0.0131 µM
  TGI: < 0.0346 µM
NCI/ADR-RES ovarian
  GI50: < 0.01 µM
PC-3 prostate
  GI50: 0.0224 µM
  TGI: 2.89 µM
SF-539 CNS
  GI50: < 0.0107 µM
  TGI: < 0.0218 µM
HOP-62 NSCLC
  GI50: < 0.012 µM
  TGI: 0.0633 µM
EKVX NSCLC
  GI50: < 0.0246 µM
  TGI: 0.0821 µM
HCC-2998 colon
  GI50: 0.239 µM
  TGI: 1.84 µM
786-0 renal
  GI50: 0.172 µM
  TGI: 2.25 µM
OVCAR-4 ovarian
  GI50: 2.87 µM
  TGI: 30 µM
HCT-15 colon
  GI50: 0.0546 µM
  TGI: 0.217 µM
IGROV1 ovarian
  GI50: < 0.0131 µM
  TGI: 0.234 µM
MALME-3M melanoma
  GI50: < 0.0352 µM
  TGI: 0.118 µM
NCI-H522 lung
  GI50: 0.943 µM
  TGI: 2.77 µM
SF-295 CNS
  GI50: < 0.0144 µM
  TGI: < 0.0385 µM
MDA-MB-468 breast
  GI50: < 0.018 µM
  TGI: 0.075 µM
UACC-62 melanoma
  GI50: 0.0225 µM
  TGI: 0.556 µM
OVCAR-5 ovarian
  GI50: < 0.0162 µM
  TGI: 0.455 µM
